In ChEMBL document CHEMBL1122084, “Relative affinity of 17 alpha- and/or 21-esters and 17 alpha, 21-diesters of cortisol for a glucocorticoid receptor from rat thymocytes” (J Med Chem, 1982):

The compounds below were run against T1, Glucocorticoid receptor (Rattus norvegicus) (UniProt P06536) (assay: Relative binding affinity for glucocorticoid receptor of rat thymus cytosol by displacement of [3H]dexamethasone).
T1 sequence (whole entry): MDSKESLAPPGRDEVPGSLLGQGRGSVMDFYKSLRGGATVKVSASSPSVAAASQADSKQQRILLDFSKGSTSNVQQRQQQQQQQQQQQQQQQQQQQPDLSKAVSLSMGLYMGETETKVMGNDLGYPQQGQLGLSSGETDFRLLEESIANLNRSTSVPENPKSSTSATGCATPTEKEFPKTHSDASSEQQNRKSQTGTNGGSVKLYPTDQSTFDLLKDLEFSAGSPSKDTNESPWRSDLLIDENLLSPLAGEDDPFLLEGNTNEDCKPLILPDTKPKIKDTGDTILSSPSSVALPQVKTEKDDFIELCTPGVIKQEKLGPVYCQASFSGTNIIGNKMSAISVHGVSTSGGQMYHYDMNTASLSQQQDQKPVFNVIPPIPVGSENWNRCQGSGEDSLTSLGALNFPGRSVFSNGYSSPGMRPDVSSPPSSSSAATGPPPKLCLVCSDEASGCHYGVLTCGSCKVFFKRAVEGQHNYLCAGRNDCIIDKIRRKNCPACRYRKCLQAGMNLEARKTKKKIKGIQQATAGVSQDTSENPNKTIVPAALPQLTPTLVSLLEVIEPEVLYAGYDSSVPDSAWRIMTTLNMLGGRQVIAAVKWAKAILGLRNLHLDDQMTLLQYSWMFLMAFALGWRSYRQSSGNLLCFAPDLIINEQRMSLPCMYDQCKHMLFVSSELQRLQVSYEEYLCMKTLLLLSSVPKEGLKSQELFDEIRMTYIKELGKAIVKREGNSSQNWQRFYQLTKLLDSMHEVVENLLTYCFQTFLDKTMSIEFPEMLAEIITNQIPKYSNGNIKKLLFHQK

Relative binding affinity	SMILES
1	C[C@]12CCC(=O)C=C1CC[C@@H]1[C@@H]2[C@@H](O)C[C@@]2(C)[C@H]1CC[C@]2(O)C(=O)CO

These compounds were tested against T1, Glucocorticoid receptor (Rattus norvegicus) (assay: Relative binding affinity for glucocorticoid receptor of rat thymus cytosol by displacement of [3H]dexamethasone compared to cortisol).

Relative binding affinity	SMILES
12.4	CCCC(=O)O[C@]1(C(=O)CO)CC[C@H]2[C@@H]3CCC4=CC(=O)CC[C@]4(C)[C@H]3[C@@H](O)C[C@@]21C
0.046	CC(=O)OCC(=O)[C@@]1(O)CC[C@H]2[C@@H]3CCC4=CC(=O)CC[C@]4(C)[C@H]3[C@@H](O)C[C@@]21C
0.32	CCCCC(=O)OCC(=O)[C@@]1(O)CCC2C3CCC4=CC(=O)CCC4(C)C3C(O)CC21C (stereo partly drawn)
1.33	CCCCC(=O)O[C@]1(C(=O)COC(=O)CCC)CCC2C3CCC4=CC(=O)CCC4(C)C3C(O)CC21C (stereo partly drawn)
0.093	CCC(=O)OCC(=O)[C@@]1(OC(C)=O)CCC2C3CCC4=CC(=O)CCC4(C)C3C(O)CC21C (stereo partly drawn)
0.76	CCCCC(=O)O[C@]1(C(=O)COC(C)=O)CCC2C3CCC4=CC(=O)CCC4(C)C3C(O)CC21C (stereo partly drawn)
1.14	CC(=O)O[C@]1(C(=O)CO)CCC2C3CCC4=CC(=O)CCC4(C)C3C(O)CC21C (stereo partly drawn)
11.5	CCCCC(=O)O[C@]1(C(=O)CO)CCC2C3CCC4=CC(=O)CCC4(C)C3C(O)CC21C (stereo partly drawn)
0.036	CC(=O)OCC(=O)[C@@]1(OC(C)=O)CCC2C3CCC4=CC(=O)CCC4(C)C3C(O)CC21C (stereo partly drawn)
0.152	CCCC(=O)OCC(=O)[C@@]1(OC(C)=O)CCC2C3CCC4=CC(=O)CCC4(C)C3C(O)CC21C (stereo partly drawn)
0.272	CCCCC(=O)OCC(=O)[C@@]1(OC(C)=O)CCC2C3CCC4=CC(=O)CCC4(C)C3C(O)CC21C (stereo partly drawn)
1.17	CCCCC(=O)O[C@]1(C(=O)COC(=O)CC)CCC2C3CCC4=CC(=O)CCC4(C)C3C(O)CC21C (stereo partly drawn)
